Literature values as cited in patent publication US20220160728A1, “GENE THERAPY METHODS” (Homology Medicines, Inc., priority 2020, published 2022).

conditions: corticosteroid equivalency conversion values (prednisolone equivalents)

SMILES | Equivalent dose [mg]
C[C@]12CCC(=O)C=C1CC[C@@H]1[C@@H]2[C@@H](O)C[C@@]2(C)[C@H]1CC[C@]2(O)C(=O)CO [Hydrocortisone (cortisol), Hydrocortisone] | 20
C[C@]12C=CC(=O)C=C1CC[C@@H]1[C@@H]2[C@@H](O)C[C@@]2(C)[C@H]1CC[C@]2(O)C(=O)CO [Prednisolone] | 5
C[C@]12C=CC(=O)C=C1CC[C@H]1[C@@H]3C[C@@H](O)[C@](O)(C(=O)CO)[C@@]3(C)C[C@H](O)[C@@]12F [Triamcinolone] | 4
CC(=O)OCC(=O)[C@@]1(O)CC[C@H]2[C@@H]3CCC4=CC(=O)CC[C@]4(C)[C@H]3C(=O)C[C@@]21C [Cortisone acetate] | 25
